Legend:
[1] = Nitric oxide release, Griess colorimetric method; assay type: physicochemical; details: phosphate buffer pH 7.4, N-acetylcysteine
Description: For the indirect determination of NO, the Griess colorimetric approach was utilized, which includes spectrophotometry measurements of the stable decomposition products NO2^− and NO3^−. This method requires that NO3^− is first reduced to NO2^− and then NO2^− is determined by the Griess reaction that includes two steps, the first step is a diazotization reaction in which the NO-derived nitrogen agent, dinitrogen trioxide (N2O3), which is produced by the spontaneous oxidation of NO with sulfanilamide to form the diazonium ion, is used. […] In order to evaluate thiol-induced NO generation from the appropriate compounds, including NO-donating oximes 8a–b, 8d–i, and 10a–c, they were incubated in aqueous phosphate buffer of pH 7.4 in the presence of excess N-acetylcysteine, which serves as a source of thiols that are essential for the release of NO from oximes. The signal intensity of the dye is proportional to the amount of NO released. To quantify the amount of NO released, a standard curve was made by measuring the change in absorbance of various concentrations of standard sodium nitrite solutions treated by the same way. […] At the first hour, the amount of nitric oxide released increased in compounds 8i, 8b, and 8h, while the maximum release of nitric oxide occurring in compounds 8b and 8h was at 2 h. Then, the amount of nitic oxide released declined, which may explain the biological importance of oxime moiety as a source of nitric oxide release in comparison with ketone intermediates 7a–j and 9a–c, as shown in the anticancer activity of oxime derivatives.
The nitrite calibration curve in addition to the absorbance of the tested compounds were measured on Shimadzu UV-160, UV-Visible spectrophotometer (Shimadzu, Tokyo, Japan). The tested compounds were prepared as solutions in DMF and diluted with the buffer system until a concentration of 100 mM. N-Acetyl cysteine solution was prepared in a concentration of 500 mM in methanol. Griess reagent consists of 0.1% w/v NED solution in water and sulfanilamide solution (1% w/v of sulfanilamide in 5% w/v phosphoric acid). Nitrite standard solution (0.1 M sodium nitrite in water) stock solution was prepared, from which a dilute solution of 100 μM nitrite solution was prepared by dilution 1 mL of the stock solution to 1000 mL with phosphate buffer of pH 7.4. From this solution, 4 serials 2-fold dilutions were performed to generate different concentrations of the nitrite solution (100.00, 50.00, 25.00, and 12.50 μM) and these concentrations were used for nitrite calibration curve.
Sulfanilamide and NEDD solutions were kept at 25 °C; […] of sulfanilamide solution was added to each dilution of the prepared standard nitrite solution. The mixture was left at 25 °C for 5–10 min protected from light. To this mixture, […] of the NEDD solution was added and the mixture was again left for 5–10 min at 25 °C protected from light. […] A plot of the average absorbance value for each concentration of the nitrite standard solution as a function of “Y” against nitrite concentration as a function of “X” was constructed to generate a standard nitrite calibration curve at pH 7.4.
The amount of NO released from the tested compounds 8a–b, 8d–I, and 10a–c was measured using the Griess colorimetric method either in phosphate buffer of pH 7.4 in the presence of N-acetyl cysteine, which serves as a source of thiols. The amount of NO released from the tested compounds was measured relative to NO released from standard sodium nitrite solution.
Different solutions of the tested compounds 8a–b, 8d–i, and 10a–c in DMF were diluted using phosphate buffer of pH 7.4 till a final concentration of 100 mM (test solutions). To […] of different test solutions, […] of N-acetyl cysteine solution was added and the obtained solution was kept in an incubator at 37 °C (treated solutions). […]

[2] = system: human colorectal adenocarcinoma cell line DLD-1; experiment: WST-8 antiproliferative assay, DLD-1; assay type: cell-based; details: DLD-1, 100 µM, WST-8 assay, read-out: Growth Inhibition (GI%) DLD-1

Row | melting point [°C] | SMILES | Amount of NO Released (mol/mol) 1 h [1] [mol/mol] | Amount of NO Released (mol/mol) 2 h [1] [mol/mol] | Amount of NO Released (mol/mol) 3 h [1] [mol/mol] | Amount of NO Released (mol/mol) 4 h [1] [mol/mol] | inhibition at 100 µM [2] [%]
1 | 125 to 127 | COc1ccc(-c2cc(C(=O)Oc3ccc(/C(C)=N/O)cc3OC)nn2-c2ccc(S(N)(=O)=O)cc2)cc1 [Compound 8h, (E)–4–(1–(Hydroxyimino)ethyl)–2–methoxyphenyl 5–(4–methoxyphenyl)–1–(4–sulfamoyl phenyl)–1H–pyrazole–3–carboxylate] | 0.099 ± 0.029 | 0.158 ± 0.014 | 0.104 ± 0.033 | 0.094 ± 0.0022 | 52.3
2 | 110 to 112 | COc1ccc(-c2cc(C(=O)Nc3ccc(/C(C)=N/O)cc3)nn2-c2ccc(S(N)(=O)=O)cc2)cc1 [Compound 10b, (E)–N–(4–(1–(Hydroxyimino)ethyl)phenyl)–5–(4–methoxyphenyl)–1–(4–sulfamoylphenyl)–1H–pyrazole–3–carboxamide] | 0.095 ± 0.035 | 0.114 ± 0.046 | 0.079 ± 0.031 | 0.031 ± 0.018 | 72.5

— PMC10537604, “Development and Assessment of 1,5–Diarylpyrazole/Oxime Hybrids Targeting EGFR and JNK–2 as Antiproliferative Agents: A Comprehensive Study through Synthesis, Molecular Docking, and Evaluation” (Molecules, 2023)
